In this test the target is T1, full-length AR (Homo sapiens, UniProt P10275, T878A).
T1 construct: calculated based on normalized full-length AR and AR-V7 band intensity; endogenous in cells; host or cells: LNCaP, CWR22Rv1, VCaP
T1 sequence (P10275 1-920 T878A): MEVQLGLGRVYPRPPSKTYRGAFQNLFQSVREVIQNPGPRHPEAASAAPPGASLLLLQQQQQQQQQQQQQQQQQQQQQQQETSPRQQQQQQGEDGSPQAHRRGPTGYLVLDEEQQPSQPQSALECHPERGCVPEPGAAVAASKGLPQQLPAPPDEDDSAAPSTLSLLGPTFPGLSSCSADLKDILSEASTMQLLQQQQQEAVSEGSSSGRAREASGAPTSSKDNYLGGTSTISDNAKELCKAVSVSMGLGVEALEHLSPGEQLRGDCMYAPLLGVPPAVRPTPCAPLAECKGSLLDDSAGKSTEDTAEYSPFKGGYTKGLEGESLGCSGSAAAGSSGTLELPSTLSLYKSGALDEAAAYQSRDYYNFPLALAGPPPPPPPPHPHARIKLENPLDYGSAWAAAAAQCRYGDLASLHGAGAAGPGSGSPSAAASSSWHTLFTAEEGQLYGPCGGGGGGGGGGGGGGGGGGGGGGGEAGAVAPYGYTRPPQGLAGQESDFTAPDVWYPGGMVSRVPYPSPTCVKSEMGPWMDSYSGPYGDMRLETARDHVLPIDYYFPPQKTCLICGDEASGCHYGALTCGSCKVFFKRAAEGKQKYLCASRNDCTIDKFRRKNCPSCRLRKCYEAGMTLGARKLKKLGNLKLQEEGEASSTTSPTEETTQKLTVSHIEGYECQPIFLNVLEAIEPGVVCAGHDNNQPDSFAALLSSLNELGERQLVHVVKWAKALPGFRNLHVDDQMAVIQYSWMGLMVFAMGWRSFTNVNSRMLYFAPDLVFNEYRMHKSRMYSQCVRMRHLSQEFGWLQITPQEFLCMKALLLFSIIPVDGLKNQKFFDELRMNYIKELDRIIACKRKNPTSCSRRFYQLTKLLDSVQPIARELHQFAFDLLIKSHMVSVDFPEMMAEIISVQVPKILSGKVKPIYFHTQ
As to the kind of experiment: AR degradation by western blot in prostate cancer cell lines. Format: cell-based. The conditions noted are these: LNCaP cells; for DC50: 24 h treatment; for Dmax at 20 µM: maximum degradation at 20 μM. Here is the method:
To obtain total lysates, cells were lysed in RIPA buffer (50 mM Tris–HCl pH 8.0, 150 mM NaCl, 1% NP-40, 0.5% Na-deoxycholate, 0.5% SDS plus protease inhibitors). The lysates were resolved by SDS-polyacrylamide gel electrophoresis, and the protein expression was analyzed by western blotting using primary antibodies against AR (Millipore Cat# 06-680, RRID:AB_310214), AR-V7 (RevMAb Biosciences Cat# 31-1109-00, RRID:AB_2716436), GAPDH (Cell Signaling Technology Cat# 2118, RRID:AB_561053) and Actin (Sigma–Aldrich Cat# A5441, RRID:AB_476744). pLenti4/TO/Flag-AR or pLenti4/TO/Flag-TC-AR plasmid was co-transfected with HA-ubiquitin plasmid into 293T cells. 24 h after transfection, the cells were treated with 10 μM of the PROTAC compounds for 16 h, followed by 4-h treatment of 5 μM MG132. The cells were lysed with lysis buffer (50 mM Tris–HCl pH7.5, 150 mM NaCl, 0. 5% Triton X-100, 10% glycerol, 1 mM EDTA plus protease inhibitors) containing 1 ng/mL of N-ethylmaleimide, followed by immunoprecipitation with anti-Flag M2 (Sigma–Aldrich Cat# F3165, RRID:AB_259529) antibody. The ubiquitinated AR was then detected by western blotting using anti-HA (Sigma–Aldrich Cat# H3663, RRID:AB_262051) antibody.
Fig. 1 PROTAC-based AR degraders ITRI-90, ITRI-125 and ITRI-126 reduce AR and AR-V7 proteins in prostate cancer cell lines. (a) Chemical structure of the PROTAC AR degraders. (b) Representative western blots of AR protein levels in LNCaP, CWR22Rv1 and VCaP cells treated with the PROTAC degraders for 24 h. AR was detected by N-terminal antibody which also detects C-terminal truncated AR-V(ΔLBD) in CWR22Rv1 cells. AR-V7 specific antibody was used for AR-V7 detection. 4%–12% gradient gel was used to separate different species of AR-V(ΔLBD) near 75 kDa in CWR22Rv1 cell lysates. DC50 indicating the concentration required to achieve 50% degradation, was calculated based on normalized full-length AR and AR-V7 band intensity. Dmax is the maximum degradation achieved at 20 μM compound treatment. TEXT PRINTED IN THE PICTURE: (a) ITRI-90: AR DC50 (μM) LNCaP: 2.12 ± 0.93; AR DC50 (μM) CWR22Rv1: 5.73 ± 2.28; AR DC50 (μM) VCaP: 8.67 ± 4.87; AR-V7 DC50 (μM) CWR22Rv1: 4.72 ± 2.52; AR-V7 DC50 (μM) VCaP: 0.29 ± 0.15; AR Dmax (%) LNCaP: 88; AR Dmax (%) CWR22Rv1: 98; AR Dmax (%) VCaP: 90; AR-V7 Dmax (%) CWR22Rv1: 100; AR-V7 Dmax (%) VCaP: 63 | (a) ITRI-125: AR DC50 (μM) LNCaP: 6.10 ± 4.43; AR DC50 (μM) CWR22Rv1: 6.64 ± 1.87; AR DC50 (μM) VCaP: 9.05 ± 3.75; AR-V7 DC50 (μM) CWR22Rv1: 1.89 ± 1.06; AR-V7 DC50 (μM) VCaP: 0.52 ± 0.37; AR Dmax (%) LNCaP: 71; AR Dmax (%) CWR22Rv1: 96; AR Dmax (%) VCaP: 85; AR-V7 Dmax (%) CWR22Rv1: 99; AR-V7 Dmax (%) VCaP: 67 | (a) ITRI-126: AR DC50 (μM) LNCaP: 3.41 ± 3.13; AR DC50 (μM) CWR22Rv1: 0.11 ± 0.02; AR DC50 (μM) VCaP: 0.851 ± 0.43; AR-V7 DC50 (μM) CWR22Rv1: 0.011 ± 0.003; AR-V7 DC50 (μM) VCaP: 0.43 ± 0.19; AR Dmax (%) LNCaP: 99; AR Dmax (%) CWR22Rv1: 74; AR Dmax (%) VCaP: 94; AR-V7 Dmax (%) CWR22Rv1: 91; AR-V7 Dmax (%) VCaP: 82
A general note: A western blot detects proteins with antibodies after separation by electrophoresis.

As usually defined, the DC50 is the midpoint of the concentration-degradation curve. As usually defined, the Dmax is the greatest extent of degradation seen. A high value points to deep degradation. `Cc1ncsc1-c1ccc(CNC(=O)[C@@H]2C[C@H](O)CN2C(=O)[C@@H](NC(=O)COCCCCOc2ccc(C3CCN(C4=Nn5c(nnc5C(F)(F)F)CC4)CC3)cc2)C(C)(C)C)cc1` [ITRI-90, (2S,4S)-1-((S)-3,3-dimethyl-2-(2-(4-(4-(1-(3-(trifluoromethyl)-7,8-dihydro-[1,2,4]triazolo[4,3-b]pyridazin-6-yl)piperidin-4-yl)phenoxy)butoxy)acetamido)butanoyl)-4-hydroxy-N-(4-(4-methylthiazol-5-yl)benzyl)pyrrolidine-2-carboxamide] returned a DC50 of 2.12 ± 0.93 µM and a Dmax at 20 µM of 88%.
On the same counts, the results for `O=C1CCC(N2Cc3c(NC(=O)COCCCCOc4ccc(C5CCN(C6=Nn7c(nnc7C(F)(F)F)CC6)CC5)cc4)cccc3C2=O)C(=O)N1` (stereo not drawn) [ITRI-126, N-(2-(2,6-dioxopiperidin-3-yl)-1-oxoisoindolin-4-yl)-2-(4-(4-(1-(3-(trifluoromethyl)-7,8-dihydro-[1,2,4]triazolo[4,3-b]pyridazin-6-yl)piperidin-4-yl)phenoxy)butoxy)acetamide] are 3.41 ± 3.13 µM and 99%.
In the same order, the values of `Cc1ncsc1-c1ccc(CNC(=O)[C@@H]2C[C@H](O)CN2C(=O)[C@@H](NC(=O)COCCCCCCOc2ccc(C3CCN(C4=Nn5c(nnc5C(F)(F)F)CC4)CC3)cc2)C(C)(C)C)cc1` [ITRI-125, (2S,4S)-1-((S)-3,3-dimethyl-2-(2-(6-(4-(1-(3-(trifluoromethyl)-7,8-dihydro-[1,2,4]triazolo[4,3-b]pyridazin-6-yl)piperidin-4-yl)phenoxy)hexyloxy)acetamido)butanoyl)-4-hydroxy-N-(4-(4-methylthiazol-5-yl)benzyl)pyrrolidine-2-carboxamide] are 6.1 ± 4.43 µM and 71%.

Values taken from PMC10011747, “Targeting androgen receptor and the variants by an orally bioavailable Proteolysis Targeting Chimeras compound in castration resistant prostate cancer” (eBioMedicine, 2023).
